US20160220582A1, “COMBINATION OF LUPEOL ACETATE AND CURCUMIN USED FOR THE TREATMENT OR PREVENTION OF ACTIVATED OSTEOCLAST PRECURSOR ASSOCIATED DISORDERS” (priority 2015, published 2016)

Key:
[1] = Body weight tracking in CIA mice; format: in vivo
Description: Eight-week-old DBA/1J mice (purchased from Jackson lab, ME, USA and housed in the Animal center of National Yang Ming University under pathogen-free conditions according to the Institutional Animal Care and Committee guidelines) were used. 100 μl of arthritis-inducing adjuvant (prepared by mixing Complete Freund's Adjuvant (5 mg/ml heat-killed M. tuberculosis in incomplete Freund's Adjuvant) (Chondrex, WA, USA) with equal volume of bovine type II collagen (2 mg/ml solution in 0.05 M acetic acid) (Chondrex, WA, USA)) is injected into the dermis of tail (intra-dermal, i.d.) using a 30 G syringe; and a 50 μl second dose of same ingredients is injected in the same way at an interval of 21 days. The symptoms are produced at about six days after the second dose injection, with an induction rate of 100%. The CIA mice were established and treated with LA 25 mg/kg alone, LA 50 mg/kg alone, Cur 50 mg/kg alone and LA 25 mg/kg+Cur 50 mg/kg after second immunization once per day. Using animals treated with deionized distilled water (ddH2O) containing 0.1% dimethyl sulfoxide (DMSO, Sigma, USA) as the normal mice group. Signs of arthritis were monitored until Day 43.

[2] = test system: collagen-induced arthritis (CIA) mice; assay: 18F-FDG PET of joints in CIA mice; format: in vivo, DBA/1J mice
Excerpt: Apart from blood analysis, current clinical diagnosis will also use X-ray as an evaluation basis. Since X-ray image can only diagnose rheumatoid arthritis when the bone has been damaged severely at late stage, it could not be an effective evaluation tool. ^18F-FDG can be used as a tracer to observe and evaluate its accumulation during rheumatoid arthritis.
Repeated ^18F-FDG PET in vivo determination of disease severity in knee joints and paws on 20, 25, 32, 39 and 43 days after arthritis induction. Mice were anesthetized using 1-3% isoflurane and were intravenous injected with 0.5 mCi/100 μl (18.5 MBq) of ^18F-FDG 40 min before images acquisition. The emission scans were performed using an animal micro/PET scan (Tri-Modality FLEX Triumph™ Pre-Clinical Imaging System). All images were acquired for 40 min and reconstructed by software supplied by the manufacturer. The ROIs were selected, and the accumulation of ^18F-FDG of each ROI was further analyzed by Amide software.

[3] = test system: collagen-induced arthritis (CIA) mice; assay: Micro-CT bone density of femur in CIA mice; format: in vivo, DBA/1J mice; details: day 32, 39 and 43
Description: Micro-CT images were acquired from the Tri-Modality FLEX Triumph™ Pre-Clinical Imaging System (Gamma MedicaIdeas; Northridge, Calif.). The ROI was analyzed visually in three different slices: transverse, coronal, and sagittal. Individual ROI was used to create 3D representations of the bones of interest. For each specific bone ROI, the total number of pixels and mean pixel intensity across all slices were used to measure bone volume and density.

[4] = test system: collagen-induced arthritis (CIA) mice; assay: Histopathology of joints (H & E stain) in CIA mice; format: in vivo, DBA/1J mice; details: day 43
Excerpt: To investigate the therapeutic efficacy of LA combined with curcumin on the histological damage in CIA mice, the mice were scarified on day 43 after arthritis induction. The joints of four limb of each mouse were excised and fixed with paraformaldehyde then embedded by paraffin and sectioned. Slides were stained with haematoxylin and eosin (H & E), and were observed under microscope.

arthritis = details: mice; cited from earlier work
[5] = clinical application; cited from earlier work
RAW 264.7 cells = assay: MTT cell viability assay; details: RAW264.7, 24 h; LA 10-80 μM, Cur 2.5-10 μM, 10 μM Cur+10-80 μM LA
Description: RAW 264.7 cells (a mouse macrophage cell line) were treated with different concentrations of lupeol acetate (10, 20, 40, 80 μM), curcumin (2.5, 5, 7.5, 10 μM) and combination (10 μM Cur+10 μM LA, 10 μM Cur+20 μM LA, 10 μM Cur+40 μM LA, 10 μM Cur+80 μM LA) for 24 h.
5×10^4 RAW264.7 cells/well were seeded in 96-well culture dishes, and treated with directed concentration of lupeol acetate (LA), curcumin (Cur) and combination for 24 hours after the 24-hr attachment. After removing the culture medium, 100 μl of 0.5 mg/ml MTT solution was added, and the cells were incubated at 37° C. for 4 hours. The mitochondrial enzyme (succinate dehydrogenase, SDH) in living cells will react with tetrazolium bromide in the MTT solution and form formazan blue-purple crystals. The MTT solution was removed and 200 μl DMSO was added to dissolve the blue-purple crystal, and then the O.D. (optical density) value was read under wavelength of 570 nm with an ELISA reader (TECAN Sunrise, USA). The relative cell viability is calculated by comparing the absorbance value of drug treated group with that of the control group (setting the value of control group as 100%).

[6] = test system: collagen-induced arthritis (CIA) mice; assay: Ex vivo Western blotting of leg proteins of CIA mice; format: in vivo, DBA/1J mice; details: day 32
Description: The mice were sacrificed by cervical dislocation on the 32nd day of the animal experiment. The whole leg of mouse was removed, and the leg tissue was ground by adding an appropriate amount of lysis buffer (tissue protein extraction reagent, T-PER, Pierce Protein Biology Products, IL, USA), centrifuged at 15,000 rpm for 20 minutes, and the supernatant is taken as the sample for each group.
Mice were sacrificed at the peak of arthritis (on day 32), the protein extraction was isolated from legs of each group.

NF-κB = assay: Ex vivo electrophoretic mobility shift assay (EMSA); format: in vivo, DBA/1J mice
Description: The LightShift Chemiluminescent EMSA kit (Pierce, Rockford, Ill., USA) was used in the analysis for NF-κB/DNA binding activity. Nuclear extracts were incubated with the biotin labeled DNA probes at room temperature for 20 minutes. The separated DNA/protein complexes from the free oligonucleotide on 10% polyacrylamide gel were transferred to a nylon membrane. The nylon membrane was immersed in ECL (Pierce, Rockford, Ill., USA) and reacted to emit cold light (luminescence), and then exposed to the film for the observation of NF-κB activity. Using IMAGE J software (National Institutes of Health), the obtained images were quantified to blackening degree; the blackening degree of the protein to be observed is divided by the value obtained in the control group to compare the differences of each group in the expression level of nuclear proteins.

[7] = test system: inflammatory condition induced by carrageenan; details: mice; Lucetti et al. 2010; cited from earlier work
rheumatoid arthritis = details: mice; high doses (100 mg/kg, 12 days) necessary; US 20120177754; cited from earlier work

Molecule	tolerability / general toxicity ([1]; mouse, in vivo)	18F-FDG accumulation in knee and tarsal joint / leg swelling ([2]; 50 mg/kg alone)	bone density of femur vs CIA mice [3]	histopathology of joints: immune cell infiltration and cartilage destruction ([4]; 50 mg/kg)	occurrence of inflammation and progression of arthritis (arthritis)	bioavailability [5]	cytotoxic effects, cell viability (MTT) (RAW 264.7 cells)	tolerability / general toxicity ([1]; CIA mice, throughout the experimental period)	18F-FDG accumulation in knee and tarsal joint / leg swelling ([2]; 25 mg/kg alone)	arthritis-related proteins ([6]; LA25 (25 mg/kg))	arthritis-related proteins ([6]; LA50 (50 mg/kg))	activation of NF-κB (NF-κB; LA25 (25 mg/kg))	activation of NF-κB (NF-κB; LA50 (50 mg/kg))	histopathology of joints: immune cell infiltration and cartilage destruction ([4]; 25 mg/kg)	inflammatory condition induced by carrageenan [7]	inhibiting inflammation and treatment of rheumatoid arthritis (rheumatoid arthritis)
COc1cc(/C=C/C(=O)CC(=O)/C=C/c2ccc(O)c(OC)c2)ccc1O [Cur, curcumin]	well-tolerated	still have leg swelling on one side	significantly higher	moderate immune cell infiltration and cartilage destruction	inhibit	poor bioavailability										
lupeol acetate [LA]			significantly higher	no inflammation and cartilage destruction			no cytotoxic effects	well-tolerated	still have leg swelling on one side	improvement	improvement	significantly suppressed	significantly suppressed	moderate immune cell infiltration and cartilage destruction	effectively mitigate	significant therapeutic effect
